# From patent publication US12297235B2, “Synthetic peptide compounds and methods of use” (REALTA HOLDINGS, LLC, priority 2015, dated 2025)
# Square brackets hold non-standard residues; d marks the D form. Peptide text beside a SMILES is read from it. Sar = CNCC(=O)O
# Assay: not given
# Assay type: biochemical, human
# Settings: 0.77 mM peptide in factor B-depleted serum; standardized to water or DMSO; Table 6
# Experimental: Peptides were diluted to 0.77 mM in factor B-depleted human sera (Complement Technologies, Inc.) and incubated for 1 hour at 37° C. These peptides were then diluted with GVBS^++ to equal 2.5% serum, of which 0.25 ml was combined with 0.4 ml of GVBS^++ and 0.1 ml of sensitized sheep red blood cells (RBCs) and again incubated for 1 hour at 37° C. The procedure was stopped by the addition of 4.0 ml of GVBS^−− centrifuged for 5 minutes at 1,620×g, and the absorbance of the supernatants was read at 412 nm in a spectrophotometer. The percent lysis of each sample was standardized to that of the serum only control.
# The final concentration of peptide in factor B-depleted serum was 0.77 mM. Each peptide was evaluated in triplicate and the mean values are reported. […] In the hemolytic assay, soluble peptides are standardized to water and insoluble peptides standardized to DMSO.
# Polar Assortant peptides were serially diluted in undiluted factor B-depleted human sera (Complement Technologies, Inc.) and incubated for 1 hour at 37° C. Water, GVBS^++ and DMSO were included as controls. These peptides were then diluted with GVBS^++ to equal 2.5% serum, of which 0.25 ml was combined with 0.4 ml of GVBS^++ and 0.1 ml of sensitized sheep red blood cells (RBCs) and again incubated for 1 hour at 37° C. The procedure was stopped by the addition of 4.0 ml of GVBS^−−, centrifuged for 5 minutes at 1,620×g, and the absorbance of the supernatants was read at 412 nm in a spectrophotometer. The percent lysis of each sample was standardized to that of the serum only control.
# The final concentration of peptide in factor B-depleted serum was 0.77 mM. […] In the hemolytic assay, soluble peptides were standardized to water and insoluble peptides standardized to DMSO.
# The final concentration of peptide in factor B-depleted serum was 0.77 mM. […] In the hemolytic assay, soluble peptides are standardized to water and insoluble peptides standardized to DMSO.
row,SMILES,hemolysis [%]
1,CC[C@H](C)[C@H](N)C(=O)N[C@@H](C)C(=O)N[C@@H](CC(C)C)C(=O)N[C@H](C(=O)N[C@@H](CC(C)C)C(=O)N[C@@H](CCC(=O)O)C(=O)N1CCC[C@H]1C(=O)N[C@H](C(=O)N[C@@H](CS)C(=O)N[C@@H](CS)C(=O)N[C@@H](CCC(N)=O)C(=O)N[C@@H](CCC(=O)O)C(=O)N[C@@H](CCCNC(=N)N)C(=O)N[C@@H](C)C(=O)N[C@@H](C)C(=O)NCCOCCOCCC(=O)O)[C@@H](C)CC)[C@@H](C)CC [PA-dPEG02],11.6
2,CC[C@H](C)[C@H](N)C(=O)N[C@@H](C)C(=O)N[C@@H](CC(C)C)C(=O)N[C@H](C(=O)N[C@@H](CC(C)C)C(=O)N[C@@H](CCC(=O)O)C(=O)N1CCC[C@H]1C(=O)N[C@H](C(=O)N[C@@H](CS)C(=O)N[C@@H](CS)C(=O)N[C@@H](CCC(N)=O)C(=O)N[C@@H](CCC(=O)O)C(=O)N[C@@H](CCCNC(=N)N)C(=O)N[C@@H](C)C(=O)N[C@@H](C)C(=O)NCCOCCOCCOCCC(=O)O)[C@@H](C)CC)[C@@H](C)CC [PA-dPEG03],12.6
3,CC[C@H](C)[C@H](N)C(=O)N[C@@H](C)C(=O)N[C@@H](CC(C)C)C(=O)N[C@H](C(=O)N[C@@H](CC(C)C)C(=O)N[C@@H](CCC(=O)O)C(=O)N1CCC[C@H]1C(=O)N[C@H](C(=O)N[C@@H](CS)C(=O)N[C@@H](CS)C(=O)N[C@@H](CCC(N)=O)C(=O)N[C@@H](CCC(=O)O)C(=O)N[C@@H](CCCNC(=N)N)C(=O)N[C@@H](C)C(=O)N[C@@H](C)C(=O)NCCOCCOCCOCCOCCC(=O)O)[C@@H](C)CC)[C@@H](C)CC [PA-dPEG04],12.4
4,CC[C@H](C)[C@H](N)C(=O)N[C@@H](C)C(=O)N[C@@H](CC(C)C)C(=O)N[C@H](C(=O)N[C@@H](CC(C)C)C(=O)N[C@@H](CCC(=O)O)C(=O)N1CCC[C@H]1C(=O)N[C@H](C(=O)N[C@@H](CS)C(=O)N[C@@H](CS)C(=O)N[C@@H](CCC(N)=O)C(=O)N[C@@H](CCC(=O)O)C(=O)N[C@@H](CCCNC(=N)N)C(=O)N[C@@H](C)C(=O)N[C@@H](C)C(=O)NCCOCCOCCOCCOCCOCCOCCC(=O)O)[C@@H](C)CC)[C@@H](C)CC [PA-dPEG06],44.8
5,CC[C@H](C)[C@H](N)C(=O)N[C@@H](C)C(=O)N[C@@H](CC(C)C)C(=O)N[C@H](C(=O)N[C@@H](CC(C)C)C(=O)N[C@@H](CCC(=O)O)C(=O)N1CCC[C@H]1C(=O)N[C@H](C(=O)N[C@@H](CS)C(=O)N[C@@H](CS)C(=O)N[C@@H](CCC(N)=O)C(=O)N[C@@H](CCC(=O)O)C(=O)N[C@@H](CCCNC(=N)N)C(=O)N[C@@H](C)C(=O)N[C@@H](C)C(=O)NCCOCCOCCOCCOCCOCCOCCOCCOCCC(=O)O)[C@@H](C)CC)[C@@H](C)CC [PA-dPEG08],34.7

# Assay: Solubility in water
# Assay type: physicochemical
# Settings: Table 7, PEGylated and Sar/Ala substitution peptides
row,SMILES,Solubility in water
1,CC[C@H](C)[C@H](N)C(=O)N[C@@H](C)C(=O)N[C@@H](CC(C)C)C(=O)N[C@H](C(=O)N[C@@H](CC(C)C)C(=O)N[C@@H](CCC(=O)O)C(=O)N1CCC[C@H]1C(=O)N[C@H](C(=O)N[C@@H](CS)C(=O)N[C@@H](CS)C(=O)N[C@@H](CCC(N)=O)C(=O)N[C@@H](CCC(=O)O)C(=O)N(C)CC(=O)N[C@@H](C)C(=O)N[C@@H](C)C(=O)NCCOCCOCCOCCOCCOCCOCCOCCOCCOCCOCCOCCOCCOCCOCCOCCOCCOCCOCCOCCOCCOCCOCCOCCOCCC(=O)O)[C@@H](C)CC)[C@@H](C)CC [PA-R13Sar-dPEG24],Yes
2,CC[C@H](C)[C@H](N)C(=O)N[C@@H](C)C(=O)N[C@@H](CC(C)C)C(=O)N[C@H](C(=O)N[C@@H](CC(C)C)C(=O)N[C@@H](CCC(=O)O)C(=O)N1CCC[C@H]1C(=O)N[C@H](C(=O)N(C)CC(=O)N[C@@H](CS)C(=O)N[C@@H](CCC(N)=O)C(=O)N[C@@H](CCC(=O)O)C(=O)N[C@@H](CCCNC(=N)N)C(=O)N(C)CC(=O)N[C@@H](C)C(=O)O)[C@@H](C)CC)[C@@H](C)CC [Peptide A14SarC9Sar] (H-IALILEPI[Sar]CQER[Sar]A-OH),No
3,"CC[C@H](C)[C@H](N)C(=O)N[C@@H](C)C(=O)N[C@@H](CC(C)C)C(=O)N[C@H](C(=O)N[C@@H](CC(C)C)C(=O)N[C@@H](CCC(=O)O)C(=O)N(C)CC(=O)N[C@H](C(=O)N[C@@H](CS)C(=O)N[C@@H](CS)C(=O)N[C@@H](CCC(N)=O)C(=O)N[C@@H](CCC(=O)O)C(=O)N[C@@H](CCCNC(=N)N)C(=O)N(C)CC(=O)N[C@@H](C)C(=O)O)[C@@H](C)CC)[C@@H](C)CC [Peptide A14SarP7Sar, IALILE(Sar)ICCQER(Sar)A] (H-IALILE[Sar]ICCQER[Sar]A-OH; N-terminus and C-terminus assumed)",Yes
4,CC[C@H](C)[C@H](N)C(=O)N[C@@H](C)C(=O)N[C@@H](CC(C)C)C(=O)N[C@H](C(=O)N[C@@H](CC(C)C)C(=O)N[C@@H](C)C(=O)N1CCC[C@H]1C(=O)N[C@H](C(=O)N(C)CC(=O)N[C@@H](CS)C(=O)N[C@@H](CCC(N)=O)C(=O)N[C@@H](C)C(=O)N[C@@H](CCCNC(=N)N)C(=O)N[C@@H](C)C(=O)N[C@@H](C)C(=O)O)[C@@H](C)CC)[C@@H](C)CC [Peptide E6AE12AC9Sar] (H-IALILAPI[Sar]CQARAA-OH),No
5,CC[C@H](C)[C@H](N)C(=O)N[C@@H](C)C(=O)N[C@@H](CC(C)C)C(=O)N[C@H](C(=O)N[C@@H](CC(C)C)C(=O)N[C@@H](C)C(=O)N(C)CC(=O)N[C@H](C(=O)N[C@@H](CS)C(=O)N[C@@H](CS)C(=O)N[C@@H](CCC(N)=O)C(=O)N[C@@H](C)C(=O)N[C@@H](CCCNC(=N)N)C(=O)N[C@@H](C)C(=O)N[C@@H](C)C(=O)O)[C@@H](C)CC)[C@@H](C)CC [Peptide E6AE12AP7Sar] (H-IALILA[Sar]ICCQARAA-OH; N-terminus and C-terminus assumed),Yes
6,"CC[C@H](C)[C@H](N)C(=O)N[C@@H](C)C(=O)N[C@@H](CC(C)C)C(=O)N[C@H](C(=O)N[C@@H](CC(C)C)C(=O)N(C)CC(=O)N1CCC[C@H]1C(=O)N[C@H](C(=O)N(C)CC(=O)N[C@@H](CS)C(=O)N[C@@H](CCC(N)=O)C(=O)N[C@@H](CCC(=O)O)C(=O)N[C@@H](CCCNC(=N)N)C(=O)N[C@@H](C)C(=O)N[C@@H](C)C(=O)O)[C@@H](C)CC)[C@@H](C)CC [Peptide E6SarC9Sar, IALIL(Sar)PI(Sar)CQERAA] (H-IALIL[Sar]PI[Sar]CQERAA-OH)",Yes
7,CC[C@H](C)[C@H](N)C(=O)N[C@@H](C)C(=O)N[C@@H](CC(C)C)C(=O)N[C@H](C(=O)N[C@@H](CC(C)C)C(=O)N(C)CC(=O)N(C)CC(=O)N[C@H](C(=O)N[C@@H](CS)C(=O)N[C@@H](CS)C(=O)N[C@@H](CCC(N)=O)C(=O)N[C@@H](CCC(=O)O)C(=O)N[C@@H](CCCNC(=N)N)C(=O)N[C@@H](C)C(=O)N[C@@H](C)C(=O)O)[C@@H](C)CC)[C@@H](C)CC [Peptide E6SarP7Sar] (H-IALIL[Sar][Sar]ICCQERAA-OH; N-terminus and C-terminus assumed),Yes
8,CC[C@H](C)[C@H](N)C(=O)N[C@@H](C)C(=O)N[C@@H](CC(C)C)C(=O)N[C@H](C(=O)N[C@@H](CC(C)C)C(=O)N[C@@H](CCC(=O)O)C(=O)N1CCC[C@H]1C(=O)N[C@H](C(=O)N(C)CC(=O)N[C@@H](CS)C(=O)N(C)CC(=O)N[C@@H](CCC(=O)O)C(=O)N[C@@H](CCCNC(=N)N)C(=O)N[C@@H](C)C(=O)N[C@@H](C)C(=O)O)[C@@H](C)CC)[C@@H](C)CC [Peptide Q11SarC9Sar] (H-IALILEPI[Sar]C[Sar]ERAA-OH),Yes
9,"CC[C@H](C)[C@H](N)C(=O)N[C@@H](C)C(=O)N[C@@H](CC(C)C)C(=O)N[C@H](C(=O)N[C@@H](CC(C)C)C(=O)N[C@@H](CCC(=O)O)C(=O)N(C)CC(=O)N[C@H](C(=O)N[C@@H](CS)C(=O)N[C@@H](CS)C(=O)N(C)CC(=O)N[C@@H](CCC(=O)O)C(=O)N[C@@H](CCCNC(=N)N)C(=O)N[C@@H](C)C(=O)N[C@@H](C)C(=O)O)[C@@H](C)CC)[C@@H](C)CC [Peptide Q11SarP7Sar, IALILE(Sar)ICC(Sar)ERAA] (H-IALILE[Sar]ICC[Sar]ERAA-OH; N-terminus and C-terminus assumed)",Yes
10,CC[C@H](C)[C@H](N)C(=O)N[C@@H](C)C(=O)N[C@@H](CC(C)C)C(=O)N[C@H](C(=O)N[C@@H](CC(C)C)C(=O)N[C@@H](CCC(=O)O)C(=O)N1CCC[C@H]1C(=O)N[C@H](C(=O)N(C)CC(=O)N[C@@H](CS)C(=O)N[C@@H](CCC(N)=O)C(=O)N[C@@H](CCC(=O)O)C(=O)N(C)CC(=O)N[C@@H](C)C(=O)N[C@@H](C)C(=O)O)[C@@H](C)CC)[C@@H](C)CC [Peptide R13SarC9Sar] (H-IALILEPI[Sar]CQE[Sar]AA-OH),No
11,"CC[C@H](C)[C@H](N)C(=O)N[C@@H](C)C(=O)N[C@@H](CC(C)C)C(=O)N[C@H](C(=O)N[C@@H](CC(C)C)C(=O)N[C@@H](CCC(=O)O)C(=O)N(C)CC(=O)N[C@H](C(=O)N[C@@H](CS)C(=O)N[C@@H](CS)C(=O)N[C@@H](CCC(N)=O)C(=O)N[C@@H](CCC(=O)O)C(=O)N(C)CC(=O)N[C@@H](C)C(=O)N[C@@H](C)C(=O)O)[C@@H](C)CC)[C@@H](C)CC [Peptide R13SarP7Sar, IALILE(Sar)ICCQE(Sar)AA] (H-IALILE[Sar]ICCQE[Sar]AA-OH)",No
